Reference: ChEMBL document CHEMBL1201862, “PubChem BioAssay data set” (2004)
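A five-concentration, 48-hour dose response in 96-well plates underlies each endpoint, interpolated linearly between surrounding concentrations. GI50 is the concentration that inhibits growth by half.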 The source made the active and inactive calls. Cut-off read from the data, not from the text of the source: active = GI50 up to about 1.1 µM and inactive = higher.

Experiments:
Experiment in all cases: inhibition of tumour cell growth, NCI panel, 48 h
[1] = test system: 786-0
[2] = test system: A549
[3] = test system: ACHN
[4] = test system: CAKI-1
[5] = test system: CCRF-CEM
[6] = test system: COLO 205
[7] = test system: DLD-1
[8] = test system: DMS-114
[9] = test system: DMS-273
[10] = test system: HCC 2998
[11] = test system: HCT-116
[12] = test system: HCT-15
[13] = test system: HL-60
[14] = test system: HOP-62
[15] = test system: HOP-92
[16] = test system: HT-29
[17] = test system: IGROV-1
[18] = test system: K562
[19] = test system: KM-20L2
[20] = test system: KM12
[21] = test system: LXFL 529
[22] = test system: M14
[23] = test system: M19-MEL
[24] = test system: MOLT-4
[25] = test system: Malme-3M
[26] = test system: NCI-H226
[27] = test system: NCI-H23
[28] = test system: NCI-H460
[29] = test system: NCI-H522
[30] = test system: OVCAR-3
[31] = test system: OVCAR-4
[32] = test system: OVCAR-5
[33] = test system: OVCAR-8
[34] = test system: RPMI-8226
[35] = test system: SF-268
[36] = test system: SF-295
[37] = test system: SF-539
[38] = test system: SK-MEL-28
[39] = test system: SK-MEL-2
[40] = test system: SK-MEL-5
[41] = test system: SNB-19
[42] = test system: SNB-75
[43] = test system: SR
[44] = test system: SW-620
[45] = test system: TK-10
[46] = test system: U-251
[47] = test system: UACC-257
[48] = test system: UACC-62
[49] = test system: UO-31
[50] = test system: XF498
[51] = test system: RXF 393
[52] = test system: SK-OV-3
[53] = test system: SN12C
[54] = test system: SNB-78

Measured: GI50

O=C(c1ccccc1)c1c(CC(O)c2ccccc2)n(C(=O)c2ccccc2)c2ccccc12 (centres undefined)
inactive: [1] > 100 µM | [2] 31.6 µM | [3] 34.4 µM | [4] 55.7 µM | [5] 35.8 µM | [6] 47.6 µM | [7] 40.9 µM | [8] 28 µM | [9] 43 µM | [10] 42.1 µM | [11] 23.1 µM | [13] 31.3 µM | [14] 24.2 µM | [15] 29.7 µM | [16] 63.8 µM | [17] 42.6 µM | [18] 27.9 µM | [19] 55.8 µM | [20] 32 µM | [21] 39.5 µM | [22] 33 µM | [23] 59 µM | [24] 16.6 µM | [25] 56.2 µM | [26] 31.6 µM | [27] 19 µM | [28] 30.1 µM | [29] 17.5 µM | [30] 28.8 µM | [31] 35.5 µM | [32] > 100 µM | [33] 57.7 µM | [34] 25.2 µM | [35] 43.5 µM | [36] 28.8 µM | [37] 34.2 µM | [38] 95.1 µM | [39] 36.5 µM | [40] 29.2 µM | [41] 36.4 µM | [42] 6.97 µM | [43] 16.9 µM | [44] 50.7 µM | [45] > 100 µM | [46] 36.1 µM | [47] 35.3 µM | [48] 46.3 µM | [49] 19.9 µM | [50] > 100 µM
32.7 µM: [12]

O=C(N/C(=C\c1ccc(Br)cc1)c1nc2ccccc2[nH]1)c1ccccc1
inactive: [4] 23.3 µM | [5] 19.9 µM | [6] 18.9 µM | [7] 17.5 µM | [9] 24.3 µM | [10] 17.2 µM | [15] 11.6 µM | [16] 18.1 µM | [17] 24.7 µM | [18] 15.8 µM | [19] 15.1 µM | [20] 17.5 µM | [21] 13.6 µM | [22] 18.2 µM | [24] 17.6 µM | [25] 22.9 µM | [27] 17.1 µM | [29] 14.5 µM | [30] 19.1 µM | [31] 13.3 µM | [32] 14.9 µM | [33] 21 µM | [51] 16.4 µM | [36] 28 µM | [38] 15.8 µM | [39] 16.3 µM | [40] 19.8 µM | [52] 34.6 µM | [53] 18.4 µM | [41] 18.4 µM | [54] 21.9 µM | [43] 18.3 µM | [44] 16.1 µM | [45] 30.1 µM | [46] 17.3 µM | [48] 18.8 µM | [49] 15.6 µM | [50] 15.9 µM
16.3 µM: [12]
